Results on twelve compounds are retold here after US7868206B2, “Trihalomethionine derivative and pharmaceutical product containing the same” (National University Corporation, Gunma University, priority 2005, dated 2011).

Where “and” joins values, the source holds several entries; their conditions need not be identical. Identical values can stand only once. Entries after “also recorded” stand apart in the source; their conditions may differ. Counter-ions that a name gives are not always drawn. Like-named read-outs stand apart in the source and are kept apart here.

The subject of test [1] is Entamoeba histolytica HM1: IMSS c16 strain. To be noted: for Total liver weight / Liver non-abscess portions / Liver abscess portions: individual hamsters A, B, C; for Liver abscess portions: dash = no abscess (total = non-abscess). As to the method:
Next, the compound of the present invention was evaluated in an animal infection experiment using a hamster liver abscess model. First, an Entamoeba histolytica HM1: IMSS c16 strain was injected to 3-week-old female hamsters to induce liver abscesses. […] In Table 2, A, B, and C in the respective groups show individual hamsters used. Many other compounds (trifluoromethionine, SK254, SK258, WY241, WY244, and WY252) were evaluated in animal infection experiments in the same way as Example 3.

For test [2] the test system is unchanged. Briefly: Inhibition of proliferation of Entamoeba histolytica, anaerobic culture in 96-well plate, 72 hours, WST-1 (Example 2). Format: cell-based. The conditions noted are these: for IC50: Entamoeba histolytica, 0.25 to 20 μM, anaerobic culture, read-out: IC50 (concentration required to inhibit proliferation by 50% compared to untreated controls). As to the method: The Entamoeba histolytica HM1: IMSS c16 strain was cultured for 18 hours in a medium containing each compound at a concentration of 80 μM. […] The cell number was measured by determining the number of living cells of Entamoeba histolytica using WST-1 (Roche Diagnostics K.K.).
The killing effects of each of the compounds: trifluoromethionine (TFM), trifluoromethionine amide (WY200), SK254, SK258, WY241, WY244, WY252, K010, SK276, SK316, SK336, and SK337 on Entamoeba histolytica HM1: IMSS c16 strain were examined. The Entamoeba histolytica HM1: IMSS c16 strain was anaerobically cultured in a medium containing each compound at a concentration of 0.25 to 20 μM in a 96-well plate: The number of cells after 72 hours was determined in the same way as Example 1. […] It was found from the results that many compounds including SK337 killed the Entamoeba histolytica protozoan at concentrations more than 10-fold lower than the concentration of trifluoromethionine.
In general terms: Formazan colour is commonly taken as a measure of viable cells.

Test [3] has the same test system. Briefly: Killing effect on Entamoeba histolytica, living cell number by WST-1 after 18 hours (Example 1, FIG. 1). To be noted: 80 μM, 18 hours culture. Format: cell-based. As to the method: The killing effect of each of the compounds: trifluoromethionine (TFM), trifluoromethionine amide (WY200), metronidazole (known anti-amoeba drug) on an Entamoeba histolytica HM1: IMSS c16 strain was examined. The Entamoeba histolytica HM1: IMSS c16 strain was cultured for 18 hours in a medium containing each compound at a concentration of 80 μM. […] The cell number was measured by determining the number of living cells of Entamoeba histolytica using WST-1 (Roche Diagnostics K.K.).

Setting [4] is: intraperitoneal 3 μmol (1.1 to 1.3 mg) per hamster (body weight 28 to 37 g).
[5] abbreviates: intraperitoneal 3 μmol per hamster.
Where [6] appears, read: intraperitoneal 3 μmol (1.1 to 1.3 mg) per hamster (body weight 28 to 37 g), hydrochloride.
The mark [7] stands for this setting: intraperitoneal 3 μmol per hamster, hydrochloride.

For `N[C@@H](CCSC(F)(F)F)C(=O)O` [TFM, trifluoromethionine, reference compound], the Total liver weight entry in test [1] (setting [4]) is “A. 2,240 mg; also recorded: B. 2,415 mg; also recorded: C. 2,575 mg”. Also, in test [1] (setting [5]), the Liver non-abscess portions is 2,240 mg and 2,415 mg and 2,575 mg. In addition, the IC50 in test [2] was determined as 17.2 µM.

On to `Cl.N[C@@H](CCSC(F)(F)F)C(=O)Nc1ccc(F)cc1F` [WY244, 1-(2,4-difluoro-phenylcarbamoyl)-3-trifluoromethylsulfanyl-propyl-ammonium chloride], for which the Total liver weight result in test [1] (setting [4]) is on record as “A. 2,575 mg; also recorded: B. 2,181 mg; also recorded: C. 2,570 mg”. Besides, in test [1] (setting [5]), the Liver non-abscess portions was 2,561 mg and 2,181 mg and 2,570 mg; the Liver abscess portions worked out at 14 mg. The IC50 in test [2] stood at 5.5 µM.

Consider `COc1cc(NC(=O)[C@@H](N)CCSC(F)(F)F)cc(OC)c1OC` [SK336, (S)-2-amino-N-(3,4,5-trimethoxyphenyl)-4-(trifluoromethylthio)butanamide hydrochloride], for which the IC50 in test [2] is 1.7 µM.

For the compound `COc1cc(NC(=O)[C@@H](N)CCSC(F)(F)F)cc(OC)c1.Cl` [WY252, 1-(3,5-dimethoxy-phenylcarbamoyl)-3-trifluoromethylsulfanyl-propylammonium chloride], the Total liver weight result in test [1] (setting [4]) is on record as “A. 2,539 mg; also recorded: B. 3,338 mg; also recorded: C. 2,687 mg”. In test [1] (setting [5]), the Liver non-abscess portions is 2,1204 mg and 3,338 mg and 2,687 mg; the Liver abscess portions is 19 mg. In addition, in test [2], the IC50 came to 1.6 µM.

Turning to `NC(CSC(F)(F)F)C(=O)Nc1ccccc1` (stereo in doubt) [KO10, (S)-2-amino-N-phenyl-3-(trifluoromethylthio)propanamide hydrochloride], the IC50 in test [2] turned out to be 13.7 µM.

As to `Cl.N[C@@H](CCSC(F)(F)F)C(=O)Nc1ccc(Br)cc1` [WY241, 1-(4-bromophenylcarbamoyl)-3-trifluoromethylsulfanyl-propyl-ammonium chloride], in test [1] (setting [4]), the Total liver weight result was “A. 2,916 mg; also recorded: B. 2,371 mg; also recorded: C. 2,900 mg”. Moreover, in test [1] (setting [5]), the Liver non-abscess portions is 2,916 mg and 2,371 mg and 2,900 mg. Further, the IC50 in test [2] came to 11.8 µM.

`NC(=O)[C@@H](N)CCSC(F)(F)F` [WY200, trifluoromethionine amide]: the Total liver weight result in test [1] (setting [4]) is “A. 3,059 mg; also recorded: B. 1,624 mg”; in test [1] (intraperitoneal 40 μmol, 3-week-old female hamsters), “B. 2814 mg; also recorded: A. 2157 mg”. Further, the Liver non-abscess portions in test [1] (setting [5]) is 3,059 mg and 1,624 mg; in test [1] (intraperitoneal 40 μmol), 2814 mg and 2145 mg. Also, the “increase of total weights of the liver (in words)” value in test [1] (intraperitoneal 40 μmol) is recorded as “did not increase the total weights of the liver”. The “liver abscess formation (in words)” value in test [1] (intraperitoneal 40 μmol) was “caused no liver abscess”. In test [3], the “killing effect on Entamoeba histolytica (number of living cells)” value is on record as “more effectively than trifluoromethionine”.

With `N[C@@H](CSC(F)(F)F)C(=O)NCc1ccccc1` [SK316, (R)-2-amino-N-benzyl-3-(trifluoromethylthio)propanamide hydrochloride], the IC50 in test [2] is 8.9 µM.

In the case of `Cl.N[C@@H](CCSC(F)(F)F)C(=O)Nc1ccccc1` [SK258, (S)-2-amino-N-phenyl-4-(trifluoromethylthio)butanamide hydrochloride], in test [1] (setting [6]), the Total liver weight entry was “A. 2,071 mg; also recorded: B. 2,768 mg; also recorded: C. 1,510 mg”. The Liver non-abscess portions in test [1] (setting [7]) is 2,071 mg and 2,768 mg and 1,510 mg. The IC50 in test [2] turned out to be 2.5 µM.

Consider `N[C@@H](CCSC(F)(F)F)C(=O)NC1CCc2ccccc21` (stereo partly drawn) [SK276, (2S)-2-amino-N-(2,3-dihydro-1H-inden-1-yl)-4-(trifluoromethylthio) butanamide hydrochloride], for which, in test [2], the IC50 is 6.8 µM.

As for `COc1ccc(NC(=O)[C@@H](N)CCSC(F)(F)F)cc1OC.Cl` [SK337, (S)-2-amino-N-(3,4-dimethoxyphenyl)-4-(trifluoromethylthio)butanamide hydrochloride], the IC50 in test [2] turned out to be 1.5 µM. In addition, the “concentration lower than the concentration of trifluoromethionine” value in test [2] (compared with trifluoromethionine) is recorded as “more than 10 fold”.

Take `Cl.N[C@@H](CCSC(F)(F)F)C(=O)NCc1ccccc1` [SK254, (S)-2-amino-N-benzyl-4-(trifluoromethylthio)butanamide hydrochloride]: in test [1] (setting [6]), the Total liver weight entry is listed as “A. 2,318 mg; also recorded: B. 2,193 mg; also recorded: C. 2,386 mg”. The Liver non-abscess portions in test [1] (setting [7]) is 2,318 mg and 2,193 mg and 2,386 mg. Moreover, the IC50 in test [2] is 2.5 µM.
